How the values were obtained:
Format in all cases: cell-based, Staphylococcus aureus
[1] = tested on: production of TSST-1 by S. aureus (MN8)
[2] = tested on: TSST-1 production by S. aureus FRI-1187
[3] = tested on: TSST-1 production by S. aureus FRI-1169

Molecule | ELISA: TSST-1 ng/OD unit [1] | TSST-1 produced when compared to the control [1] | ELISA: TSST-1 ng/OD unit [2] | TSST-1 produced when compared to the control [2] | ELISA: TSST-1 ng/OD unit [3] | TSST-1 produced when compared to the control [3]
4-hydroxydiphenyl methane [4-Hydroxydiphenyl-methane] | 785 | – | – | – | – | –
Oc1c(Cl)cc(Cl)c(Cl)c1Cc1c(O)c(Cl)cc(Cl)c1Cl [Hexachlorophene, hexachlorophene] | 330 | significantly less TSST-1 | – | – | – | –
Oc1cc(Cl)ccc1Oc1ccc(Cl)cc1Cl [Triclosan, triclosan] | 129 | significantly less TSST-1 | 95 | less TSST-1 | 40 | less TSST-1
